# According to patent US10053428B2, “5-aminotetrahydroquinoline-2-carboxylic acids and their use” (BAYER PHARMA AKTIENGESELLSCHAFT, priority 2012, dated 2018):
# Test system: recombinant guanylate cyclase reporter cell line
# Assay: sGC-activating activity in the CHO reporter cell in vitro
# Type: cell-based
# Settings: read-out: MEC (minimum effective concentration)
# Experimental: B-2. Action at a Recombinant Guanylate Cyclase Reporter Cell Line
# The cellular action of the compounds according to the invention is determined at a recombinant guanylate cyclase reporter cell line, as described in F. Wunder et al., Anal. Biochem. 32, 104-112 (2005).
row,SMILES,minimal effective concentration [nM]
1,"CC(C)(C)c1ccc(COc2ccccc2CCN(CCc2ccc(C(=O)O)cc2)C2CCCc3nc(C(=O)O)ccc32)cc1 (racemic) [Example 12, rac-5-{(2-{2-[(4-tert-Butylbenzyl)oxy]phenyl}ethyl)[2-(4-carboxyphenyl)ethyl]amino}-5,6,7,8-tetrahydroquinoline-2-carboxylic acid]",0.3
2,"CC(C)(C)c1ccc(COc2ccccc2CCN(CCCCC(=O)O)C2CCCc3nc(C(=O)O)ccc32)cc1 (single isomer, unassigned) [Example 3]",100
3,"O=C(O)CCCCN(CCc1ccccc1OCc1ccc(-c2ccc(C(F)(F)F)cc2)cc1Cl)C1CCCc2nc(C(=O)O)ccc21 (single isomer, unassigned) [Example 7]",0.3
4,"O=C(O)CCCCN(CCc1ccccc1OCc1ccc(-c2ccc(C(F)(F)F)cc2)cc1Cl)C1CCCc2nc(C(=O)O)ccc21 (single isomer, unassigned) [Example 8]",3
5,"O=C(O)CCCCN(CCc1ccccc1OCCCCCc1ccccc1)C1CCCc2nc(C(=O)O)ccc21 (single isomer, unassigned) [Example 9]",10
6,"O=C(O)CCCCN(CCc1ccccc1OCCCCCc1ccccc1)C1CCCc2nc(C(=O)O)ccc21 (single isomer, unassigned) [Example 10]",300
7,"O=C(O)CCCCN(CCc1ccccc1OCc1ccc(-c2ccc(C(F)(F)F)cc2)cc1)C1CCCc2nc(C(=O)O)ccc21 (single isomer, unassigned) [Example 17]",1000
8,"Cc1ccc2oc(-c3ccc(COc4ccccc4CCN(CCc4ccc(C(=O)O)cc4)C4CCCc5nc(C(=O)O)ccc54)cc3)nc2c1 (single isomer, unassigned) [Example 21]",100
9,"Cc1ccc2oc(-c3ccc(COc4ccccc4CCN(CCc4ccc(C(=O)O)cc4)C4CCCc5nc(C(=O)O)ccc54)cc3)nc2c1 (single isomer, unassigned) [Example 22]",1
10,"O=C(O)c1ccc(CCN(CCc2ccccc2OCc2ccc(-c3nc4cc(C(F)(F)F)ccc4o3)cc2)C2CCCc3nc(C(=O)O)ccc32)cc1 (single isomer, unassigned) [Example 24]",1
11,"O=C(O)CCCCN(CCc1ccccc1OCc1ccc(-c2nc3cc(C(F)(F)F)ccc3o2)cc1)C1CCCc2nc(C(=O)O)ccc21 (single isomer, unassigned) [Example 25]",0.3
12,"O=C(O)c1ccc(CCN(CCc2ccccc2OCc2ccc(-c3nc4ccccc4o3)cc2)C2CCCc3nc(C(=O)O)ccc32)cc1 (single isomer, unassigned) [Example 26]",1
13,"O=C(O)c1ccc(CCN(CCc2ccccc2OCc2ccc(-c3nc4cc(OC(F)(F)F)ccc4o3)cc2)C2CCCc3nc(C(=O)O)ccc32)cc1 (single isomer, unassigned) [Example 29]",3
14,"N#Cc1ccc2oc(-c3ccc(COc4ccccc4CCN(CCc4ccc(C(=O)O)cc4)C4CCCc5nc(C(=O)O)ccc54)cc3)nc2c1 (single isomer, unassigned) [Example 30]",1
15,"N#Cc1ccc2oc(-c3ccc(COc4ccccc4CCN(CCCCC(=O)O)C4CCCc5nc(C(=O)O)ccc54)cc3)nc2c1 (single isomer, unassigned) [Example 31]",10
16,"O=C(O)CCCCN(CCc1ccccc1OCc1ccc(-c2nc3cc(Cl)ccc3o2)cc1)C1CCCc2nc(C(=O)O)ccc21 (single isomer, unassigned) [Example 32]",0.3
17,"O=C(O)c1ccc(CCN(CCc2cc(F)ccc2OCc2ccc(-c3ccc(C(F)(F)F)cc3)cc2Cl)C2CCCc3nc(C(=O)O)ccc32)cc1 (single isomer, unassigned) [Example 33]",10
18,"O=C(O)c1ccc(CCN(CCc2cc(F)ccc2OCc2ccc(-c3ccc(C(F)(F)F)cc3)cc2Cl)C2CCCc3nc(C(=O)O)ccc32)cc1 (single isomer, unassigned) [Example 34]",1
19,"O=C(O)c1ccc(CCN(CCc2cc(F)ccc2OCc2ccc(-c3nc4cc(Cl)ccc4o3)cc2)C2CCCc3nc(C(=O)O)ccc32)cc1 (single isomer, unassigned) [Example 35]",3
20,"O=C(O)CCCCN(CCc1cc(F)ccc1OCc1ccc(-c2nc3cc(Cl)ccc3o2)cc1)C1CCCc2nc(C(=O)O)ccc21 (single isomer, unassigned) [Example 36]",30
21,"O=C(O)CCCCN(CCc1cc(F)ccc1OCc1ccc(-c2nc3cc(Cl)ccc3o2)cc1)C1CCCc2nc(C(=O)O)ccc21 (single isomer, unassigned) [Example 37]",1
22,"O=C(O)c1ccc(CCN(CCc2cc(F)ccc2OCc2ccc(CCc3ccc(F)cc3)cc2)C2CCCc3nc(C(=O)O)ccc32)cc1 (single isomer, unassigned) [Example 42]",3
23,"O=C(O)c1ccc(CCN(CCc2ccccc2OCc2ccc(-c3nc4cc(Cl)ccc4o3)cc2)C2CCCc3nc(C(=O)O)ccc32)cc1 (single isomer, unassigned; enantiomer 1) [Example 19, 5-{[2-(4-Carboxyphenyl)ethyl][2-(2-{[4-(5-chloro-1,3-benzoxazol-2-yl)benzyl]oxy}phenyl)ethyl]-amino}-5,6,7,8-tetrahydroquinoline-2-carboxylic acid (Enantiomer 1)]",30
24,"O=C(O)c1ccc(CCN(CCc2ccccc2OCc2ccc(-c3nc4cc(Cl)ccc4o3)cc2)C2CCCc3nc(C(=O)O)ccc32)cc1 (single isomer, unassigned; enantiomer 2) [Example 20, 5-{[2-(4-Carboxyphenyl)ethyl][2-(2-{[4-(5-chloro-1,3-benzoxazol-2-yl)benzyl]oxy}phenyl)ethyl]-amino}-5,6,7,8-tetrahydroquinoline-2-carboxylic acid (Enantiomer 2)]",3
25,"O=C(O)c1ccc(CCN(CCc2ccccc2OCc2ccc(CCc3ccccc3)cc2)C2CCCc3nc(C(=O)O)ccc32)cc1 (single isomer, unassigned; enantiomer 2) [Example 38, 5-{[2-(4-Carboxyphenyl)ethyl][2-(2-{[4-(2-phenylethyl)benzyl]oxy}phenyl)ethyl]amino}-5,6,7,8-tetrahydroquinoline-2-carboxylic acid (Enantiomer 2)]",0.3
26,"O=C(O)c1ccc(CCN(CCc2cc(F)ccc2OCc2ccc(CCc3ccc(F)cc3)cc2)C2CCCc3nc(C(=O)O)ccc32)cc1 (single isomer, unassigned; enantiomer 2) [Example 43, 5-([2-(4-Carboxyphenyl)ethyl]{2-[5-fluoro-2-({4-[2-(4-fluorophenyl)ethyl]benzyl}oxy)phenyl]-ethyl}amino)-5,6,7,8-tetrahydroquinoline-2-carboxylic acid (Enantiomer 2)]",0.3
27,CCC(=O)N1CCC(c2ccc(COc3ccccc3CCN(CCCCC(=O)O)C3CCCc4nc(C(=O)O)ccc43)cc2)CC1 (stereo not shown) [Example 5],100
28,O=C(O)CCCCN(CCc1ccccc1OCc1ccc([C@H]2CC[C@H](C(F)(F)F)CC2)cc1)C1CCCc2nc(C(=O)O)ccc21 (stereo partly shown) [Example 11],0.3
